Data published in patent EP3677663A1, “NON-ENZYMATIC REMOVAL OF PROTEINACEOUS SOILS” (Henkel AG & Co. KGaA, priority 2019, dated 2020).

Assays:
Ovalbumin = molecular target: T1, Ovalbumin (Gallus gallus, UniProt P01012); experiment: Hydrolysis of unaltered Ovalbumin by polyoxometalates, monitored by SDS-PAGE; type: biochemical, chicken; settings: 60°C, 1.0 mg/ml Ovalbumin, polyoxometalate 14 mg/ml
T1 construct: Ovalbumin from chicken egg was purchased from Acros (Mw 44.5 kDa); purchased Acros; host or cells: chicken egg
T1 sequence (P01012 1-386): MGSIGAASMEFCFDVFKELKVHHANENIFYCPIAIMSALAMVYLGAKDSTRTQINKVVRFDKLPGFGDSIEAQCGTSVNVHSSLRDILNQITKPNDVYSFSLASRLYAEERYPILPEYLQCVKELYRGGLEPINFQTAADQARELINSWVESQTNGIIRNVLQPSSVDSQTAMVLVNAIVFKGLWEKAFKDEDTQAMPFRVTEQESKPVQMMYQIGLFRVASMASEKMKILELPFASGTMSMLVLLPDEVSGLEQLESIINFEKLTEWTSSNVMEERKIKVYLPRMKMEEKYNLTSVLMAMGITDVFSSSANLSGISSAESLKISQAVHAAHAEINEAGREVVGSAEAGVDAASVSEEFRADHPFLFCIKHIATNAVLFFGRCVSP
Description: (§1) All gels were 100x100x1 mm and the stacking gel was approximately 1 cm long from the bottom of the comb to the top of the resolving gel resulting in a resolving gel of 8 cm. 2. Table 1: Composition of the solutions to prepare 18% resolving and 5% stacking gel.
(§2) After pouring the resolving gel, a thin layer of isopropanol was carefully added on top of the gel. The resolving gel was left 1 hour to harden, and isopropanol was removed before pouring the stacking gel. A 12 well comb was placed inside the stacking gel and left to harden for an additional hour. The finished gels were kept in the fridge.
(§3) Samples were prepared by mixing a 10 µl of sample with 5 µl of 3X sample buffer (225 µl TRIS/HCI buffer (1M, pH 6.8), 630 mg glycerol, 50 mg SDS, 0.5 mg bromophenol blue and 250 µl 1 M DTI), incubating at 95 °C for 5 minutes and centrifuging the samples after they are cooled to room temperature. The wells of the stacking gel were loaded with 10 µl of sample and 5 µl of protein ladder.
(§4) An OmniPAGE electrophoretic cell was combined with an EV243 power supply (both produced by Consort) in experiments at 30 mA/gel and 100 V/gel for the 18% resolving gel (approximately 2.5 hours) and 20 mA/gel and 100 V/gel for the 12% resolving gel (approximately 1.5 hours). As anode and cathode buffer a TRIS/Tricine running buffer (0.1 M TRIS, 0.1 M Tricine and 0.1 wt/vol% SDS) was used for 18% gels and a TRIS/Glycine running buffer (0.2 M Glycine, 0.025 M TRIS and 0.1 wt/vol% SDS) for 12% gels. Before staining the gels were fixed for 1 hour in a 12 wt/vol% TCA solution. The staining was done by leaving the gels in a colloidal coomassie blue solution (700 ml H2O, 100 ml H3PO4, […], 1.2 g coomassie blue and 200 ml methanol) over night and subsequently destained with a heavy destain solution {60 ml methanol, 20 ml acetic acid and 120 ml water) and water. Finally, the gels were analyzed with a Gel Doc EZ imager and Image LabTM Software (both supplied by Bio-Rad). The kinetics of the reactions were studied by plotting the relative intensity of the intact proteins band in function of time and fitted to the exponential expression of a pseudo first-order reaction: I = I0 e^-kobst
(§5) In this equation I represents the intensity in function of time t, I0 the intensity at time 0 and kobs is the observed hydrolysis rate. The half-life (t½) of the intact protein was calculated according to t½ = (ln(2))/(kobs) [formula]
(§6) To solutions of 1.0 mg/ml solution of unaltered Ovalbumin or the Lactose/Ovalbumin Maillard reaction samples of example 4 or of 1.5 mg/ml solution of unaltered Whey protein or the Lactose/Whey protein Maillard reaction samples of example 4 were added the polyoxometalates of examples 1 to 3 at a concentration of 14 mg/ml. The rate of hydrolysis for the proteins at 60°C at pH 4 (sodium citrate buffer, 10 mM) and 9 (glycine/NaOH buffer, 10 mM) was studied over time. Results for the hydrolysis rate and the half-life of the unaltered protein samples are given in tables 5 and 6 and results for the half-life of altered proteinaceous samples of example 4 (treated at pH 9) are given in table 7. Table 5: Hydrolysis of unaltered Whey protein

Whey protein = experiment: Hydrolysis of unaltered Whey protein by polyoxometalates, monitored by SDS-PAGE; type: biochemical; settings: 60°C, 1.5 mg/ml Whey protein, polyoxometalate 14 mg/ml
Description: as §1, §2, §3, §4, §5, §6

[1] = pH 4 (sodium citrate buffer, 10 mM)
[2] = pH 9 (glycine/NaOH buffer, 10 mM)

Row | Substance | Rate x 10^-3 [min^-1] (Ovalbumin; [1]) | Rate x 10^-3 [min^-1] (Ovalbumin; [2]) | Rate x 10^-3 [min^-1] (Whey protein; [1]) | Rate x 10^-3 [min^-1] (Whey protein; [2])
1 | ((C2H5)2NH2)6[Zr2(PW11O39)2] [Zr2Ke2] | 6±3 x 10^-3 min^-1 | 7±3 x 10^-3 min^-1 | 3.8±0.8 x 10^-3 min^-1 | 1±1 x 10^-3 min^-1
2 | K10[Ce(PW11O39)2] [CeKe2] | 6±2 x 10^-3 min^-1 | 7±1 x 10^-3 min^-1 | 9±5 x 10^-3 min^-1 | 5.30±0.04 x 10^-3 min^-1
3 | ((C2H5)2NH2)10[Zr(PW11O39)2] [ZrKe2] | 4.3±0.4 x 10^-3 min^-1 | 5±2 x 10^-3 min^-1 | 1.8±0.7 x 10^-3 min^-1 | 6±1 x 10^-3 min^-1
